PubChem BioAssay (NCI)
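All cell lines were grown in 96-well plates and treated with compound for 48 hours. TGI: total growth inhibition.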

Columns and labels:
Test in all cases: NCI anticancer screen, dose series, 48 h
OVCAR-8 ovarian = system: OVCAR-8 ovarian
T-47D breast = system: T-47D breast
MALME-3M melanoma = system: MALME-3M melanoma
SNB-19 CNS = system: SNB-19 CNS
K-562 leukemia = system: K-562 leukemia
A498 renal = system: A498 renal
NCI/ADR-RES ovarian = system: NCI/ADR-RES ovarian
SF-268 CNS = system: SF-268 CNS
IGROV1 ovarian = system: IGROV1 ovarian
SW-620 colon = system: SW-620 colon
M14 melanoma = system: M14 melanoma
OVCAR-3 ovarian = system: OVCAR-3 ovarian
SK-OV-3 ovarian = system: SK-OV-3 ovarian
OVCAR-4 ovarian = system: OVCAR-4 ovarian
HCC-2998 colon = system: HCC-2998 colon
RPMI-8226 leukemia = system: RPMI-8226 leukemia
HCT-116 colon = system: HCT-116 colon
SF-539 CNS = system: SF-539 CNS
EKVX NSCLC = system: EKVX NSCLC
UACC-257 melanoma = system: UACC-257 melanoma
HCT-15 colon = system: HCT-15 colon
NCI-H226 lung = system: NCI-H226 lung
MDA-MB-231 breast = system: MDA-MB-231 breast
786-0 renal = system: 786-0 renal
A549 NSCLC = system: A549 NSCLC
LOX IMVI melanoma = system: LOX IMVI melanoma
MDA-MB-435 = system: MDA-MB-435
DU-145 prostate = system: DU-145 prostate
NCI-H23 lung = system: NCI-H23 lung
COLO 205 colon = system: COLO 205 colon
SN12C renal = system: SN12C renal
NCI-H460 lung = system: NCI-H460 lung
HOP-92 NSCLC = system: HOP-92 NSCLC
SR leukemia = system: SR leukemia
CCRF-CEM leukemia = system: CCRF-CEM leukemia
MDA-N = system: MDA-N
HOP-62 NSCLC = system: HOP-62 NSCLC
SF-295 CNS = system: SF-295 CNS
HL-60(TB) leukemia = system: HL-60(TB) leukemia
SK-MEL-28 melanoma = system: SK-MEL-28 melanoma
MCF7 breast = system: MCF7 breast
MOLT-4 leukemia = system: MOLT-4 leukemia
BT-549 breast = system: BT-549 breast
U251 CNS = system: U251 CNS
PC-3 prostate = system: PC-3 prostate
TK-10 renal = system: TK-10 renal
RXF 393 renal = system: RXF 393 renal
UACC-62 melanoma = system: UACC-62 melanoma
ACHN renal = system: ACHN renal
HT29 colon = system: HT29 colon
NCI-H522 lung = system: NCI-H522 lung
KM12 colon = system: KM12 colon
UO-31 renal = system: UO-31 renal
OVCAR-5 ovarian = system: OVCAR-5 ovarian
CAKI-1 renal = system: CAKI-1 renal
SK-MEL-5 melanoma = system: SK-MEL-5 melanoma
SK-MEL-2 melanoma = system: SK-MEL-2 melanoma
HS 578T breast = system: HS 578T breast
SNB-75 CNS = system: SNB-75 CNS

NC(=S)N/N=C1\CCc2ccccc2C1
TGI (OVCAR-8 ovarian): > 100 µM | TGI (T-47D breast): > 100 µM | TGI (MALME-3M melanoma): > 100 µM | TGI (SNB-19 CNS): > 100 µM | TGI (K-562 leukemia): > 100 µM | TGI (A498 renal): > 100 µM | TGI (NCI/ADR-RES ovarian): > 100 µM | TGI (SF-268 CNS): > 100 µM | TGI (IGROV1 ovarian): > 100 µM | TGI (SW-620 colon): > 100 µM | TGI (M14 melanoma): > 100 µM | TGI (OVCAR-3 ovarian): > 100 µM | TGI (SK-OV-3 ovarian): > 100 µM | TGI (OVCAR-4 ovarian): > 100 µM | TGI (HCC-2998 colon): > 100 µM | TGI (RPMI-8226 leukemia): > 100 µM | TGI (HCT-116 colon): > 100 µM | TGI (SF-539 CNS): > 100 µM | TGI (EKVX NSCLC): > 100 µM | TGI (UACC-257 melanoma): > 100 µM | TGI (HCT-15 colon): > 100 µM | TGI (NCI-H226 lung): > 100 µM | TGI (MDA-MB-231 breast): > 100 µM | TGI (786-0 renal): > 100 µM | TGI (A549 NSCLC): > 100 µM | TGI (LOX IMVI melanoma): > 100 µM | TGI (MDA-MB-435): > 100 µM | TGI (DU-145 prostate): > 100 µM | TGI (NCI-H23 lung): > 100 µM | TGI (COLO 205 colon): > 100 µM | TGI (SN12C renal): > 100 µM | TGI (NCI-H460 lung): > 100 µM | TGI (HOP-92 NSCLC): > 100 µM | TGI (SR leukemia): > 100 µM | TGI (CCRF-CEM leukemia): > 100 µM | TGI (MDA-N): > 100 µM | TGI (HOP-62 NSCLC): > 100 µM | TGI (SF-295 CNS): > 100 µM | TGI (HL-60(TB) leukemia): > 100 µM | TGI (SK-MEL-28 melanoma): > 100 µM | TGI (MCF7 breast): > 100 µM | TGI (MOLT-4 leukemia): > 100 µM | TGI (BT-549 breast): > 100 µM | TGI (U251 CNS): > 100 µM | TGI (PC-3 prostate): > 100 µM | TGI (TK-10 renal): > 100 µM | TGI (RXF 393 renal): > 100 µM | TGI (UACC-62 melanoma): > 100 µM | TGI (ACHN renal): > 100 µM | TGI (HT29 colon): > 100 µM | TGI (NCI-H522 lung): > 100 µM | TGI (KM12 colon): > 100 µM | TGI (UO-31 renal): > 100 µM | TGI (OVCAR-5 ovarian): > 100 µM

O=C(O)CC(CC(=O)O)n1cccc1
TGI (OVCAR-8 ovarian): > 100 µM | TGI (T-47D breast): > 100 µM | TGI (SNB-19 CNS): > 100 µM | TGI (K-562 leukemia): > 100 µM | TGI (A498 renal): > 100 µM | TGI (NCI/ADR-RES ovarian): > 100 µM | TGI (IGROV1 ovarian): > 100 µM | TGI (SW-620 colon): > 100 µM | TGI (M14 melanoma): > 100 µM | TGI (OVCAR-3 ovarian): > 100 µM | TGI (SK-OV-3 ovarian): > 100 µM | TGI (OVCAR-4 ovarian): > 100 µM | TGI (RPMI-8226 leukemia): > 100 µM | TGI (CAKI-1 renal): > 100 µM | TGI (SK-MEL-5 melanoma): > 100 µM | TGI (HCT-116 colon): > 100 µM | TGI (SF-539 CNS): > 100 µM | TGI (EKVX NSCLC): > 100 µM | TGI (UACC-257 melanoma): > 100 µM | TGI (SK-MEL-2 melanoma): > 100 µM | TGI (HCT-15 colon): > 100 µM | TGI (NCI-H226 lung): > 100 µM | TGI (MDA-MB-231 breast): > 100 µM | TGI (786-0 renal): > 100 µM | TGI (A549 NSCLC): > 100 µM | TGI (LOX IMVI melanoma): > 100 µM | TGI (MDA-MB-435): > 100 µM | TGI (DU-145 prostate): > 100 µM | TGI (NCI-H23 lung): > 100 µM | TGI (COLO 205 colon): > 100 µM | TGI (SN12C renal): > 100 µM | TGI (NCI-H460 lung): > 100 µM | TGI (HOP-92 NSCLC): > 100 µM | TGI (SR leukemia): > 100 µM | TGI (CCRF-CEM leukemia): > 100 µM | TGI (MDA-N): > 100 µM | TGI (HOP-62 NSCLC): > 100 µM | TGI (SF-295 CNS): > 100 µM | TGI (HL-60(TB) leukemia): > 100 µM | TGI (SK-MEL-28 melanoma): > 100 µM | TGI (MCF7 breast): > 100 µM | TGI (MOLT-4 leukemia): > 100 µM | TGI (BT-549 breast): > 100 µM | TGI (U251 CNS): > 100 µM | TGI (PC-3 prostate): > 100 µM | TGI (TK-10 renal): > 100 µM | TGI (RXF 393 renal): > 100 µM | TGI (UACC-62 melanoma): > 100 µM | TGI (ACHN renal): > 100 µM | TGI (HT29 colon): > 100 µM | TGI (NCI-H522 lung): > 100 µM | TGI (KM12 colon): > 100 µM | TGI (UO-31 renal): > 100 µM | TGI (OVCAR-5 ovarian): > 100 µM

COc1ccc(C)cc1NC(=S)N/N=C/c1ccco1
TGI (OVCAR-8 ovarian): > 100 µM | TGI (T-47D breast): > 100 µM | TGI (MALME-3M melanoma): > 100 µM | TGI (SNB-19 CNS): > 100 µM | TGI (K-562 leukemia): > 100 µM | TGI (A498 renal): > 100 µM | TGI (NCI/ADR-RES ovarian): > 100 µM | TGI (SF-268 CNS): > 100 µM | TGI (IGROV1 ovarian): > 100 µM | TGI (SW-620 colon): > 100 µM | TGI (M14 melanoma): > 100 µM | TGI (OVCAR-3 ovarian): > 100 µM | TGI (SK-OV-3 ovarian): > 100 µM | TGI (OVCAR-4 ovarian): > 100 µM | TGI (HCC-2998 colon): > 100 µM | TGI (HS 578T breast): > 100 µM | TGI (RPMI-8226 leukemia): 71.8 µM | TGI (CAKI-1 renal): > 100 µM | TGI (SK-MEL-5 melanoma): 32.9 µM | TGI (HCT-116 colon): > 100 µM | TGI (SF-539 CNS): > 100 µM | TGI (SNB-75 CNS): > 100 µM | TGI (EKVX NSCLC): 64.3 µM | TGI (UACC-257 melanoma): > 100 µM | TGI (SK-MEL-2 melanoma): 39.9 µM | TGI (HCT-15 colon): > 100 µM | TGI (NCI-H226 lung): > 100 µM | TGI (786-0 renal): > 100 µM | TGI (A549 NSCLC): > 100 µM | TGI (LOX IMVI melanoma): > 100 µM | TGI (MDA-MB-435): 92.2 µM | TGI (DU-145 prostate): > 100 µM | TGI (NCI-H23 lung): > 100 µM | TGI (COLO 205 colon): 65.5 µM | TGI (SN12C renal): > 100 µM | TGI (NCI-H460 lung): > 100 µM | TGI (HOP-92 NSCLC): > 100 µM | TGI (SR leukemia): > 100 µM | TGI (CCRF-CEM leukemia): > 100 µM | TGI (MDA-N): 68.7 µM | TGI (HOP-62 NSCLC): > 100 µM | TGI (SF-295 CNS): > 100 µM | TGI (HL-60(TB) leukemia): 86.2 µM | TGI (SK-MEL-28 melanoma): > 100 µM | TGI (MCF7 breast): > 100 µM | TGI (MOLT-4 leukemia): > 100 µM | TGI (BT-549 breast): > 100 µM | TGI (PC-3 prostate): > 100 µM | TGI (RXF 393 renal): > 100 µM | TGI (UACC-62 melanoma): > 100 µM | TGI (ACHN renal): > 100 µM | TGI (HT29 colon): > 100 µM | TGI (NCI-H522 lung): 69.2 µM | TGI (KM12 colon): > 100 µM | TGI (UO-31 renal): > 100 µM | TGI (OVCAR-5 ovarian): > 100 µM
